In PubChem BioAssay AID489022 (Sanford-Burnham Center for Chemical Genomics, 2010):
Active and inactive are the calls of the source. No rule for the calls is given here.

Test system: HEK-293T NF-kB luciferase reporter, luminescence counterscreen
Assay: inhibitors of NF-kB luciferase reporter, HEK-293T, dose response, counter-screen for BCR NF-kB inhibitor project, luminescence, B-cell screen hits (AID 489022)

Row | SMILES | IC50
1 | O=C(CCl)N(c1ccc(Cl)cc1)c1c[nH]c2ccccc12 | 10.8 µM
2 | Cc1cnc(NC(=O)Nc2ccc(Cl)cc2)s1 | > 80 µM (inactive)
3 | COc1ccc(/C=C\C(=O)O[C@@H]2C(O)C(O[C@@H]3OC(C)[C@H](O[C@@H]4OCC(O[C@H]5O[C@H](CO)[C@@H](O)C(O)C5O)C(O)C4O)C(O)C3O)[C@H](OC(=O)[C@]34CCC(C)(C)C[C@@H]3C3=CCC5[C@@]6(C)CC(O)C(O[C@@H]7OC(CO)C(O)[C@H](O)[C@H]7O)[C@@](C)(C(=O)O)C6CC[C@@]5(C)[C@]3(CO)CC4)O[C@H]2C)cc1 (some centres undefined) | 45.7 µM (inactive)
4 | CCOC(=O)c1cc2c(=O)n3ccccc3nc2n(CC(C)C)c1=NC(=O)c1c(-c2c(F)cccc2Cl)noc1C | 5.33 µM
5 | CCc1ccc(-c2nnn(CCC(=O)OC)n2)cc1 | 0.6 µM
6 | CC(C)C(=O)Nc1ccc(NC(=O)c2ccc3c(c2)OCO3)cc1 | > 80 µM (inactive)
7 | Cc1cc(OC(=O)c2ccccc2Cl)cc(=O)n1C | > 80 µM (inactive)
8 | CCN(CC)S(=O)(=O)c1ccc(N2CCOCC2)c(NC(=O)c2[nH]c(C)c(C(C)=O)c2C)c1 | 5.92 µM
9 | CCOC(=O)C1CCN(c2ncnc3c2cnn3-c2ccc(OC)cc2)CC1 | 18.4 µM
10 | C(=N\Nc1nc(Nc2ccccc2)nc(Nc2ccccc2)n1)/c1cccnc1 | > 80 µM (inactive)
11 | COc1ccc(C(=O)N/N=C/c2ccc(OC)c(CN3CCCc4ccccc43)c2)cc1 | > 80 µM (inactive)
12 | Cn1c(=NC(=O)CCl)sc2ccccc21 | 21.6 µM (inactive)
13 | COC(=O)C1=C(c2ccc(-c3ccccc3)c(F)c2)C[C@@H]2CC[C@H]1N2C(=O)N1CCCC1 | 1.83 µM
14 | CN(C)c1cc[n+](Cc2c(Cl)cccc2Cl)cc1 | 9.88 µM
15 | Cc1ccc(O)c(NC(=O)COc2cc(C)ccc2C)c1 | > 80 µM (inactive)
16 | COC(=O)c1c(NC(=O)c2cccc([N+](=O)[O-])c2)sc(C(N)=O)c1C | > 80 µM (inactive)
17 | CCc1ccc(/C=C2/SC(=S)N(CCC(=O)Nc3ccc(C(=O)O)cc3)C2=O)cc1 | > 80 µM (inactive)
18 | CCc1cccc(NC(=O)c2ccc(CNc3c(N4CCCC4)c(=O)c3=O)cc2)c1 | > 80 µM (inactive)
19 | CCOC(=O)Cc1ccc(NC(=O)c2ccc(C(C)(C)C)cc2)cc1 | 1.04 µM
20 | CC1=CC(C)(C)Nc2ccc(OC(=O)CN3C(=O)CCC3=O)cc21 | 11.1 µM
21 | O=C(CCl)N1CCN(S(=O)(=O)c2ccc3c(c2)CCC3)CC1 | 41.9 µM (inactive)
22 | CC(C)(C)c1ccc(-n2ncc3c2CCCC3NC(=O)C2(C(N)=O)CC2)cc1 (centres undefined) | 0.34 µM
23 | Cc1ccc(-c2nn3c(C)nnc3c3ccccc23)cc1S(=O)(=O)NCc1ccco1 | 15.4 µM
24 | CCn1c(=O)cc(OCC(=O)N(C)C2CCCCC2)c2ccccc21 | > 80 µM (inactive)

Row | SMILES | IC50
25 | CCOC(=O)/C=C(\C)Sc1cc(=O)oc2ccccc12 | 10.5 µM
26 | COc1ccc(/C=C2\SC(=O)N(CCCC(=O)Nc3ccc(C(=O)O)cc3)C2=O)cc1OC | > 80 µM (inactive)
27 | CCCN1C(=O)/C(=C/c2c(N3CCNC(=O)C3CC(=O)OCC)nc3c(C)cccn3c2=O)SC1=S (centres undefined) | 14.5 µM
28 | Cc1ccc(Nc2nc(N/N=C\c3ccc4c(c3)OCO4)nc(N3CCOCC3)n2)cc1 | > 80 µM (inactive)
29 | Cc1ccc(C(=O)CSc2nnc(COc3cccc(C)c3)o2)cc1 | 21.6 µM (inactive)
30 | CNC(=O)CCc1nc(-c2ccc(C(C)(C)C)cc2)no1 | 56.4 µM (inactive)
31 | CCc1ccc(/C=C2\SC(=S)N(CCC(=O)Nc3cc(C)on3)C2=O)cc1 | > 80 µM (inactive)
32 | COc1ccc(-c2noc(N3CCC(C(=O)Nc4ccc(F)cc4F)CC3)n2)cc1 | > 80 µM (inactive)
33 | Cc1ccc(Nc2nc(N3CCOCC3)nc(N3CCOCC3)n2)cc1C | 51.4 µM (inactive)
34 | O=C(Nc1cccc(Br)c1)c1ccc2c(c1)SC1=NS(=O)(=O)CCN12 | 10.5 µM
35 | O=C(Nc1nc(-c2ccccc2)cs1)c1ccccc1NS(=O)(=O)c1ccc(F)cc1 | 0.39 µM
36 | CC(=O)Nc1ccc(Nc2nc(-c3sc(NC(C)=O)nc3C)cs2)cc1 | 47.1 µM (inactive)
37 | C(=N\Nc1nc(Nc2ccccc2)nc(N2CCOCC2)n1)/c1c[nH]c2ccccc12 | 53 µM (inactive)
38 | O=C(Cc1cccc2ccccc12)Nc1ccc(-c2cc3ccccc3oc2=O)cc1 | > 80 µM (inactive)
39 | O=C(Nc1nc2nc(-c3ccccc3)cc(-c3ccccc3)n2n1)c1ccco1 | 23.5 µM (inactive)
40 | CC(C)CN(C(=O)COC(=O)C12CC3CC(CC(C3)C1)C2)c1c(N)n(Cc2ccccc2)c(=O)[nH]c1=O | 10.6 µM
41 | Cc1cc2ccccn2c1C(=O)c1ccc(NN)c([N+](=O)[O-])c1 | 30.5 µM (inactive)
42 | CCN1C(=O)Nc2cccc3cccc1c23 | 17.8 µM
43 | COc1ccc(-c2csc3nc(-c4cccnc4)nc(N4CCC(C(N)=O)CC4)c23)cc1OC | 9.06 µM
44 | COc1ccc(/C=C2\SC(=S)N(CCC(=O)Nc3ccc(C(=O)O)cc3)C2=O)cc1 | > 80 µM (inactive)
45 | O=C(Nc1cccc(Oc2ccc3c(c2)C(=O)NC3=O)c1)c1cccs1 | 28.8 µM (inactive)
46 | Cc1ccc(-c2nn3c(C)nnc3c3ccccc23)cc1S(=O)(=O)NCCN1CCOCC1 | 32 µM (inactive)
47 | CCn1c(=O)cc(SCC(=O)N2CCC3(CC2)OCCO3)c2ccccc21 | > 80 µM (inactive)
48 | O=C(CCCN1C(=O)/C(=C/c2ccccc2Cl)SC1=S)NNC(=O)c1ccccc1 | 21.8 µM (inactive)

Row | SMILES | IC50
49 | COc1ccc(/C=C2\SC(=S)N(CCC(=O)Nc3ccc(O)cc3)C2=O)cc1 | > 80 µM (inactive)
50 | COc1ccc(OC)c(S(=O)(=O)Nc2ccc(-c3ccc4nnc(C)n4n3)cc2)c1 | 32.2 µM (inactive)
51 | CC(C)(C)c1ccc(-c2noc(CCC(=O)Nc3cccnc3)n2)cc1 | 0.55 µM
52 | CSC1CCCCC1(O)CSc1nc2c(cc1C#N)CCCC2 (centres undefined) | > 80 µM (inactive)
53 | COc1ccc(NC(=S)NCc2ccccc2)c(OC)c1 | > 80 µM (inactive)
54 | C[C@H]1CCC/C=C/C2C[C@H](O)CC2[C@H](O)/C=C/C(=O)O1 (some centres undefined) | 0.29 µM
55 | O=C1CCC2S/C(=C/Nc3ccc(C(F)(F)F)cc3)C(=O)N12 (centres undefined) | 3.77 µM
56 | Cc1ccc(-c2nc(C(=O)NCC3CCCO3)cc3c2[nH]c2ccccc23)cc1 (centres undefined) | 8.81 µM
57 | Cc1nc2cc(-c3cccc(F)c3)nn2c(C)c1CCC(=O)N1CCC2(CC1)OCCO2 | 34 µM (inactive)
58 | COc1ccc(-c2ccc(OC)c([C@H]3[C@H]4C=CC[C@@H](C)[C@@H]4C(=O)N3Cc3ccccc3)c2)cc1 | 55.5 µM (inactive)
59 | COc1ccc(-c2nc(CSCC(=O)NCc3ccco3)c(C)o2)cc1 | 38.5 µM (inactive)
60 | COc1cc(OC)cc(-c2cc3nc(C)c(CCC(=O)NCc4ccccc4)c(C)n3n2)c1 | 10.5 µM
61 | O=C(O)COc1ccc(-c2nccc(-c3ccccn3)n2)cc1 | 13.3 µM
62 | Cc1ccc(-c2nn3c(C)nnc3c3ccccc23)cc1S(=O)(=O)NC(C)(C)CO | 27.6 µM (inactive)
63 | Cc1nc2cc(-c3ccc(Cl)cc3)nn2c(C)c1CCC(=O)NCc1ccco1 | > 80 µM (inactive)
64 | CCC(=O)N1c2ccccc2[C@@H](N(C(C)=O)c2ccccc2)C[C@H]1C | 39.2 µM (inactive)
65 | CCOc1ccc(/C=C2\SC(=S)N(CCC(=O)Nc3ccc(C(=O)O)cc3)C2=O)cc1 | > 80 µM (inactive)
66 | O=C(CCl)Nc1ccccc1Sc1ccccc1 | 37.8 µM (inactive)
67 | N=c1ccn(Cc2c(Cl)cccc2Cl)cc1 | 14.1 µM
68 | COc1ccc2nc(C)cc(Sc3nc4ccccc4s3)c2c1 | 11.2 µM
69 | CCC(C)N1C(=O)/C(=C/c2c(NCCCOC(C)C)nc3c(C)cccn3c2=O)SC1=S (centres undefined) | > 80 µM (inactive)
70 | CCN(CC(=O)Nc1c(F)cccc1F)C(=O)c1cc(S(=O)(=O)N(C)C)ccc1N1CCCC1 | > 80 µM (inactive)
71 | COc1ccc(C(=O)Nc2ccc(OC)c([N+](=O)[O-])c2)cc1Br | > 80 µM (inactive)
72 | COc1ccc(/C=C2/SC(=S)N(CCC(=O)O)C2=O)cc1 | 24.3 µM (inactive)

Row | SMILES | IC50
73 | O=C(C1CCC1)N1CCN(S(=O)(=O)c2ccc([N+](=O)[O-])cc2)CC1 | > 80 µM (inactive)
74 | Cc1cc(C)c(CN2CCN(C(=O)Cn3cnc4c(NCc5ccccc5)ncnc43)CC2)c(C)c1 | 0.51 µM
75 | Cc1ccc(NC(=O)C2CCC(CNc3c(N4CCC(C)CC4)c(=O)c3=O)CC2)cc1F (centres undefined) | > 80 µM (inactive)
76 | COc1ccc(OCc2cccc(C(=O)NN)c2)cc1 | 17.4 µM
77 | COc1ccc(-c2ccc(F)cc2)cc1[C@H]1[C@H]2C=CC[C@@H](C)[C@@H]2C(=O)N1Cc1ccccc1 | 13.1 µM
78 | O=C(CCCN1C(=O)/C(=C/c2ccccc2Cl)SC1=S)Nc1ccccn1 | 23.7 µM (inactive)
79 | CC(=C\c1ccccc1)/C=C1/SC(=O)N(CCCC(=O)Nc2ccc(C(=O)O)cc2)C1=O | > 80 µM (inactive)
80 | CCN1C(=O)c2cccc3c(S(=O)(=O)Nc4ccccc4)ccc1c23 | 18.7 µM
81 | Cc1cc(OCC(=O)N2CCC(C(N)=O)CC2)c2c3c(c(=O)oc2c1)CCCC3 | > 80 µM (inactive)
82 | CCOc1ccc(-n2c(SCC(=O)Nc3ccc4c(c3)OCCO4)nc3c(c2=O)SCC3)cc1 | > 80 µM (inactive)
83 | CC(=O)c1cccc(S(=O)(=O)Nc2cc(C(F)(F)F)ccc2N2CCOCC2)c1 | > 80 µM (inactive)
84 | Cn1c(=O)c2c(SCC(=O)Nc3ccccc3F)nc(-c3ccccc3F)nc2n(C)c1=O | > 80 µM (inactive)
85 | C=CCOC(=O)COc1cc(C)cc2oc(=O)c3c(c12)CCC3 | > 80 µM (inactive)
86 | CCOc1cc(/C=N\Nc2nc(Nc3ccccc3)nc(N3CCOCC3)n2)ccc1OC(=O)c1ccco1 | > 80 µM (inactive)
87 | CCOCCCNc1nc2c(C)cccn2c(=O)c1/C=C1\SC(=S)N(C(C)CC)C1=O (centres undefined) | > 80 µM (inactive)
88 | COc1cc(C2C(C#N)=C(N)Oc3cc(N)ccc32)cc(OC)c1OC (centres undefined) | > 80 µM (inactive)
89 | CC1(c2nnc(-c3cccc(Cl)c3)o2)CC(c2cccc(Cl)c2)=NO1 (centres undefined) | 29.9 µM (inactive)
90 | Cn1c(=O)cc(SCC(=O)N2CCCC2)c2cc(Cl)ccc21 | > 80 µM (inactive)
91 | Cc1nc2cc(-c3ccc(Cl)cc3)nn2c(C)c1CCC(=O)NC(C)c1ccc2c(c1)OCCO2 (centres undefined) | 11.5 µM
92 | CCCC(=O)Nc1ccc(Sc2ccc([N+](=O)[O-])cc2)cc1 | 8.35 µM
93 | O=C(N/N=C/c1ccc(Cl)cc1Cl)c1ccc(-n2cnnn2)cc1 | > 80 µM (inactive)
94 | Cn1nc(-c2ccc(Cl)cc2)c2cc(C(=O)N3CCCC3)sc21 | 3.75 µM
